Calls of active or inactive are those of the source.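 The calls were made as follows: active = signal falls with dose and the fitted half-maximal concentration is at or below twice the top valid tested dose; inconclusive = flat curve with 30 to 70% inhibition, or poor fit; inactive = wrong direction, flat within 30%, or potency beyond limit.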
Target: Golgi-associated PDZ and coiled-coil motif-containing protein (Homo sapiens) (UniProt Q9HD26)
Test: blockers of CAL PDZ ligand groove binding – biochemical, fluorescence polarization, untagged CAL PDZ, cherry-pick, dose response (AID 602267)
Conditions: purified CAL PDZ, TMR-peptide fluorescence polarization, 1 h

| Compound | activity change, negative = inhibition (at 50 µM (top of the series)) | also measured |
| --- | --- | --- |
| O=C1c2ccccc2C(=O)N1CSc1nnnn1-c1ccccc1 | inactive | – |
| O=C(O)CSc1cc(NS(=O)(=O)c2cccc([N+](=O)[O-])c2)c2ccccc2c1O | – | AC50: 15.9 µM |
| Cc1ccc(NC(=O)N2CCCC2C(=O)NCC2CCCO2)cc1 (centres undefined) | inactive | – |
| O=C(OCc1ccc(Br)cc1)c1cccnc1 | inactive | – |
| Cc1ccc2nc(NC(=O)COC(=O)c3ccncc3)sc2c1 | inactive | – |
| Cc1cc(C(=O)Nc2ccccc2Cl)c2ccccc2n1 | inactive | – |
| Cn1nc(C(=O)N2CCCc3ccccc32)c2ccccc2c1=O | inactive | – |
| O=S(=O)(c1cccc2ccccc12)N1CCCCC1 | inactive | – |
| Cn1c(CNC(=O)OC(C)(C)C)n[nH]c1=S | inactive | – |
| O=C(NC(=S)NCCCN1CCOCC1)c1ccc(Br)cc1 | inactive | – |
| COc1ccccc1NC(=O)N(c1c(N)n(Cc2ccccc2)c(=O)[nH]c1=O)C1CCCC1 | inactive | – |
| CC(=O)Nc1cc(NC(C)=O)cc(C(=O)OCC(=O)Nc2ccc(S(=O)(=O)NC3=NCCCCC3)cc2)c1 | inactive | – |
| COc1ccc(CN2CN(C3CCCC3)CSC2=S)cc1 | inactive | – |
| CC12CNCC(C)(CN(C3(O)C(=O)Nc4ccc(Br)cc43)C1)C2=O (centres undefined) | inactive | – |
| COc1ccc(C(=O)NC2(C(F)(F)F)C(=O)Nc3c2c(=O)[nH]c(=O)n3CCc2ccc(OC)c(OC)c2)cc1 (centres undefined) | inactive | – |
| COc1ccc(Nc2cccccc2=O)cc1 | inactive | – |
| CCC(=O)c1cn(CC(=O)Nc2cccc(C)c2C)c2ccccc12 | inactive | – |
| CS(=O)(=O)c1ccc(Cl)c(NC(=O)COC(=O)c2c(Cl)cccc2Cl)c1 | inactive | – |
| Cc1c(Cl)c(C(F)(F)F)nn1CC(=O)NCc1ccco1 | inactive | – |
| FC(F)(F)c1cc(-c2cccs2)nc2ncnn12 | inactive | – |
| Cc1nn2c3ccccc3nc2c2ccccc12 | inactive | – |

| Compound | activity change, negative = inhibition (at 50 µM (top of the series)) | also measured |
| --- | --- | --- |
| CC(=O)Nc1ccc(N/C=C/C(=O)c2ccccc2)cc1 | inactive | – |
| CCc1ccc(C2CC(=O)N(c3cccc(F)c3)C3=C2C(=O)OC3)cc1 (centres undefined) | inactive | – |
| O=C(COC(=O)CNC(=O)c1cccc([N+](=O)[O-])c1)NCc1ccco1 | inactive | – |
| O=C(NCC(=O)N1CCC(N2CCCCC2)CC1)C1CCCCC1 | inactive | – |
| CN(CC1CCCO1)S(=O)(=O)c1ccc(C(=O)Nc2ccc([N+](=O)[O-])cc2)cc1 (centres undefined) | inactive | – |
| Cc1ccc(S(=O)(=O)N2CCN(CCC#N)CC2)cc1 | inactive | – |
| Cc1c(C(=O)OCC(=O)NC(=O)NC2CCCCC2)cccc1[N+](=O)[O-] | inactive | – |
| O=C(NC1(C(F)(F)F)NC(=O)N(C2CCCCC2)C1=O)C1CC1 (centres undefined) | inactive | – |
| O=C(c1ccccc1Cl)N(Cc1ccc(Cl)c(Cl)c1)N1C(=O)CCCC1=O | inactive | – |
| O=C(CCC(=O)N1CCN(c2ccccc2F)CC1)N1CCN(c2ccccc2)CC1 | inactive | – |
| Cc1cccc(CN2CCc3c([nH]c4ccccc34)C2CC(C)C)n1 (centres undefined) | inactive | – |
| Cc1sc2ncn(CC(=O)NCCCC(=O)N3CCN(Cc4ccc5c(c4)OCO5)CC3)c(=O)c2c1C | inactive | – |
| CSc1cccc(NC(=O)N2CCCC(CNS(=O)(=O)Cc3ccccc3)C2)c1 (centres undefined) | inactive | – |
| N#Cc1ccc(CC(=O)c2ccccc2)[nH]c1=O | inactive | – |
| Cc1ccc(NC(=O)CN(C)C(=S)NC2CC2)cc1 | inactive | – |
| COc1ccc(CC(=O)NCC2CCCN(Cc3cccc(SC)c3)C2)cc1 (centres undefined) | inactive | – |
| CN(C)C1(CNC(=O)C2CCC(=O)N(CCc3ccc(Cl)cc3)C2)CCCCC1 (centres undefined) | inactive | – |
| CC(=O)N1N=C(c2ccccc2)CC1c1ccccc1 (centres undefined) | inactive | – |
| COc1ccc(OC)c(-c2c3cc(O)c(=O)cc-3oc3cc(O)c(O)cc23)c1 | – | AC50: 21.4 µM |
| COc1ccc(Cl)cc1C(=O)Nc1ccc2c(c1)OCCO2 | inactive | – |
| COC(=O)c1ccccc1-c1c2ccc(=N)cc-2oc2cc(N)ccc12 | – | AC50: 2.03 µM |

| Compound | activity change, negative = inhibition (at 50 µM (top of the series)) | also measured |
| --- | --- | --- |
| COc1cc(C2NC(=O)NC(C)=C2C(=O)OC2CCCCC2)cc(Br)c1O (centres undefined) | – | activity change, negative = inhibition (at 16 µM (top of the series)): inactive |
| CCCC(=O)OCC(=O)Nc1ccccc1C#N | inactive | – |
| CC1CCC(NC(=O)C2CCN(c3cnccn3)CC2)CC1 (centres undefined) | inactive | – |
| CC(=O)Nc1sc2c(c1C(c1ccccn1)N1CCN(C)CC1)CCCC2 (centres undefined) | inactive | – |
| CS(=O)(=O)N1CCN(C(=O)c2ccc3c(c2)OCCO3)CC1 | inactive | – |
| Cc1c(NC(=O)CN2CCC(C(N)=O)CC2)cccc1[N+](=O)[O-] | inactive | – |
| Cc1cccc(Nc2nc(-c3ccc(F)cc3)cs2)n1 | inactive | – |
| CC1CCCCC1NCC(=O)NCc1ccc(F)cc1 (centres undefined) | inactive | – |
| Cc1ccccc1S(=O)(=O)NC(=NCc1ccc(F)cc1)c1ccccc1 | inactive | – |
| CC(CCCC(C)(C)O)NC(=O)c1ccc(OC2CCN(C(=O)C3CC3)CC2)cc1 (centres undefined) | inactive | – |
| C/C(=N\NC(=O)c1cc(-c2ccc(C)s2)nc2ccccc12)c1cccnc1 | inactive | – |
| C=CCOc1c(Cl)cc(CNn2cn[nH]c2=S)cc1OC | – | activity change, negative = inhibition (at 16 µM (top of the series)): inactive |
| CN(Cc1nccn1C)C(=O)c1cc(COc2ccc3ncccc3c2)on1 | inactive | – |
| COc1cccc(N2CCN(C(=O)c3ccc(-c4ccccc4)cc3)CC2)c1 | inactive | – |
| CNC(=O)c1nnn(Cc2ccccc2)c1NC(C)=O | inactive | – |
| c1ccc2[nH]c(CCNC3CCCCC3)nc2c1 | inactive | – |
| COc1cc(Br)c(C(=O)c2nccc3cc(OC)c(OC)cc23)cc1OC | inactive | – |
| CN(C)c1ccc(C(=O)OCC(=O)NC2CCCCCC2)cc1 | inactive | – |
| CCNc1ccc2noc3c2c1C(=O)c1ccccc1-3 | – | AC50: 4.74 µM |
| CCOc1ccc(NC(=O)c2nsc(Cl)c2Cl)cc1 | inactive | – |
| COc1ccc(/C=C2\N=C(c3ccc(C)cc3)OC2=O)cc1 | inactive | – |

| Compound | activity change, negative = inhibition (at 50 µM (top of the series)) | also measured |
| --- | --- | --- |
| O=C(NCc1cccnc1)/C(=C/c1ccc(-c2cccc(C(F)(F)F)c2)o1)NC(=O)c1ccccc1 | inactive | – |
| Cc1ccc(-c2nc3ccccc3c(=O)o2)cc1 | inactive | – |
| CCOC(=O)N1CCN(Cc2nc3c(c(=O)n(C)c(=O)n3C)n2Cc2cccc(C)c2)CC1 | inactive | – |
| Cc1ccc(C(=O)NC(=S)N2CCN(c3cc(C)ccc3C)CC2)cc1 | inactive | – |
| CCC1C(=O)NCCN1C(=O)CCc1nnc(CCc2ccc(OC)cc2)o1 (centres undefined) | inactive | – |
| CC1CCCN(C(=O)Cc2cccc3ccccc23)C1 (centres undefined) | inactive | – |
| CCN(CC(=O)Nc1cc(Cl)cc(Cl)c1)CC(=O)NC1CCS(=O)(=O)C1 (centres undefined) | inactive | – |
| Cn1c(=O)c2c(ncn2CC(=O)Nc2nc(-c3ccccc3Cl)cs2)n(C)c1=O | inactive | – |
| COc1ccc2ccn(S(=O)(=O)c3ccccc3)c2c1 | inactive | – |
| COCCN(Cc1nc(C(c2ccccc2)c2ccccc2)no1)C(C)C | inactive | – |
| CCOC(=O)/C(N=Nc1ccc2c(c1)OCO2)=C(\C)O | inactive | – |
| CN1CCN(c2ccccc2NC(=O)c2ccc(N3CCCC3)c([N+](=O)[O-])c2)CC1 | inactive | – |
| Cc1nc(N)c(CC(Br)CBr)c(Cl)n1 (centres undefined) | inactive | – |
| CC(CN1CCCC1)OC(=O)C(c1ccccc1)c1ccccc1 (centres undefined) | inactive | – |
| CCOC(=O)C1CCN(C(=O)C2CC(=O)N(c3ccc4c(c3)OCCO4)C2)CC1 (centres undefined) | inactive | – |
| CC(=O)c1ccc(S(=O)(=O)N2CCN(c3ccccc3F)CC2)cc1 | inactive | – |
| COc1ccc(CN2CCCC(N3CCN(c4cccc(Cl)c4)CC3)C2)cc1OC (centres undefined) | inactive | – |
| COc1ccc(/C=N/NC(=O)c2cccc(C(F)(F)F)c2)cc1 | inactive | – |
| O=C(NC(Cc1c[nH]c2ccccc12)C(=O)O)/C(=C/c1ccc(F)cc1)NC(=O)c1ccccc1 (centres undefined) | inactive | – |
| OCC1(CCOc2ccccc2)CCN(CCCn2cccn2)CC1 | inactive | – |
| Oc1ccc(C=Nc2cccc3ccccc23)c(O)c1 | inactive | – |
